The source of these data is ChEMBL document CHEMBL1154238, “Identification of specific small molecule ligands for stem loop 3 ribonucleic acid of the packaging signal Psi of human immunodeficiency virus-1” (J Med Chem, 2009).

Usually Kd stands for a measure of binding affinity in units of concentration.

The target in data set [1] is Nucleic Acid. Description: Binding affinity to fluorescein-labeled 20mer stem loop 3 HIV1 RNA of packaging element psi by titration method. The format is nucleic-acid assay, Human immunodeficiency virus 1.
Data set [2] concerns Nucleic Acid. The experiment in a line: Selectivity ratio of Kd for fluorescein-labeled HIV1 single-stranded RNA of packaging element psi to Kd for fluorescein-labeled 14mer stem loop 3 HIV1 RNA of packaging element psi. The format is nucleic-acid assay. The following applies: Human immunodeficiency virus 1.
Data set [3] addresses Nucleic Acid. Description: Binding affinity to fluorescein-labeled HIV1 single-stranded RNA of packaging element psi by titration method. The format is nucleic-acid assay, Human immunodeficiency virus 1.
The target of data set [4] is Nucleic Acid. The experiment in a line: Binding affinity to 2-aminopurine-labeled stem loop 4 HIV1 RNA of packaging element psi by titration method. The format is nucleic-acid assay, Human immunodeficiency virus 1.
Data set [5] concerns the target Nucleic Acid. Description: Binding affinity to strong binding site of unlabeled stem loop 2 HIV1 RNA of packaging element psi by isothermal titration calorimetry. In kind it is nucleic-acid assay, Human immunodeficiency virus 1. A general note: Isothermal titration calorimetry measures the heat released or taken up as one component is titrated into another.
The test system of data set [6] is Nucleic Acid. The experiment in a line: Binding affinity to stem loop 3 HIV1 RNA of packaging element psi assessed as RNA intercalation at 55 to 220 uM by CD spectroscopy. The following applies: Human immunodeficiency virus 1. The format is nucleic-acid assay.
Data set [7] has as its system Nucleic Acid. The experiment in a line: Stabilization of stem loop 3 HIV1 RNA of packaging element psi assessed as protection against RNase 1-mediated cleavage at 500 uM by footprinting method. In kind it is nucleic-acid assay. The following applies: Human immunodeficiency virus 1.
Data set [8] has as its target Nucleic Acid. Description: Binding affinity to fluorescein-labeled 14mer stem loop 3 HIV1 RNA of packaging element psi by titration method. In kind it is nucleic-acid assay, Human immunodeficiency virus 1.
In data set [9] the target is Nucleic Acid. Description: Binding affinity to weaker binding site of unlabeled stem loop 2 HIV1 RNA of packaging element psi by isothermal titration calorimetry. In kind it is nucleic-acid assay, Human immunodeficiency virus 1.
Data set [10] concerns Nucleic Acid. Description: Binding affinity to fluorescein-labeled stem loop 2 HIV1 RNA of packaging element psi by titration method. In kind it is nucleic-acid assay, Human immunodeficiency virus 1.
In data set [11] the test system is Nucleic Acid. Description: Selectivity ratio of Kd for fluorescein-labeled HIV1 duplex RNA of packaging element psi to Kd for fluorescein-labeled 14mer stem loop 3 HIV1 RNA of packaging element psi. In kind it is nucleic-acid assay. The following applies: Human immunodeficiency virus 1.
For data set [12], the target named is Nucleic Acid. The experiment in a line: Binding affinity to fluorescein-labeled HIV1 duplex RNA of packaging element psi by titration method. The format is nucleic-acid assay, Human immunodeficiency virus 1.
For data set [13], the system named is Nucleic Acid. The experiment in a line: Binding affinity to fluorescein-labeled stem loop 3 HIV1 RNA of packaging element psi after 72 hrs by mass spectroscopy. The following applies: Human immunodeficiency virus 1. The format is nucleic-acid assay.
Data set [14] concerns Nucleic Acid. Description: Stabilization of stem loop 3 HIV1 RNA of packaging element psi assessed as melting temperature by UV spectroscopy. In kind it is nucleic-acid assay. Conditions: Human immunodeficiency virus 1.
The target of data set [15] is Nucleic Acid. Description: Binding affinity to fluorescein-labeled stem loop 3 HIV1 duplex RNA of packaging element psi by titration method. The format is nucleic-acid assay, Human immunodeficiency virus 1.
Data set [16] deals with Nucleic Acid. Description: Selectivity ratio of Kd for fluorescein-labeled HIV1 duplex RNA of packaging element psi to Kd for fluorescein-labeled 20mer stem loop 3 HIV1 RNA of packaging element psi. In kind it is nucleic-acid assay. Conditions: Human immunodeficiency virus 1.
Data set [17] relates to Nucleic Acid. The experiment in a line: Selectivity ratio of Kd for fluorescein-labeled HIV1 single-stranded RNA of packaging element psi to Kd for fluorescein-labeled 20mer stem loop 3 HIV1 RNA of packaging element psi. The format is nucleic-acid assay. Conditions: Human immunodeficiency virus 1.
The nature of data set [18]: Solubility in DMSO. The format is physicochemical.
A short description of data set [19]: Solubility in water. The following applies: buffer. In kind it is physicochemical.
For data set [20], the target named is Nucleic Acid. The experiment in a line: Binding affinity to unlabeled 20mer stem loop 3 HIV1 RNA of packaging element psi by titration method. The format is nucleic-acid assay, Human immunodeficiency virus 1.
Data set [21] deals with Nucleic Acid. The experiment in a line: Binding affinity to fluorescein-labeled stem loop 4 HIV1 RNA of packaging element psi by titration method. In kind it is nucleic-acid assay, Human immunodeficiency virus 1.
In data set [22] the test system is Nucleic Acid. The experiment in a line: Binding affinity to stem loop 3 HIV1 RNA of packaging element psi assessed as RNA intercalation at 55 to 110 uM by CD spectroscopy. In kind it is nucleic-acid assay. The following applies: Human immunodeficiency virus 1.
Data set [23] concerns Nucleic Acid. Description: Selectivity ratio of Kd for fluorescein-labeled stem loop 4 HIV1 RNA of packaging element psi to Kd for fluorescein-labeled 14mer stem loop 3 HIV1 RNA of packaging element psi. In kind it is nucleic-acid assay. Conditions: Human immunodeficiency virus 1.
Data set [24] concerns Nucleic Acid. Description: Selectivity ratio of Kd for fluorescein-labeled stem loop 2 HIV1 RNA of packaging element psi to Kd for fluorescein-labeled 14mer stem loop 3 HIV1 RNA of packaging element psi. In kind it is nucleic-acid assay. The following applies: Human immunodeficiency virus 1.
Data set [25] concerns Nucleic Acid. The experiment in a line: Selectivity ratio of Kd for HIV1 single-stranded RNA to Kd for 20mer stem loop 3 HIV1 RNA. Conditions: Human immunodeficiency virus 1. In kind it is nucleic-acid assay.
Data set [26] concerns Nucleic Acid. The experiment in a line: Binding affinity to fluorescein-labeled stem loop 3 HIV1 RNA of packaging element psi by titration method. In kind it is nucleic-acid assay. Conditions: Human immunodeficiency virus 1.

Calls of active or inactive are those of the source. The calls are words filed in the database; no cut-off is given here.

Compound `C[N+]1(C)CCc2cc(O)c(O)cc2C1Cc1ccc(O)c(O)c1` (stereo unspecified) showed a Kd at Nucleic Acid [1] of 135 µM.

Turning to `COC1=C(C)C(=O)c2c(c(COC(N)=O)c3n2CC2C3N2C)C1=O` (stereo unspecified), the Selectivity ratio in the data set on Nucleic Acid [2] is 50; with Nucleic Acid [11] it was 3.5. The Kd on Nucleic Acid [3] is more than 4900 µM; at Nucleic Acid [4], 79 µM; at Nucleic Acid [5] it was 110 µM; at Nucleic Acid [8], 98 µM; at Nucleic Acid [9] it was 11000 µM; in the data set with Nucleic Acid [10] it was “Not Active”. The compound further returned a Kd on Nucleic Acid [12] of 345 µM. The result in the data set with Nucleic Acid [6], in the data set on Nucleic Acid [7] and with Nucleic Acid [13] was Active. Besides, the Tm in the data set on Nucleic Acid [14] was found to be 79.2 °C.

Take `C[N+](C)(C)CCN[N+]1(C)CCCc2ccccc21` (stereo unspecified): the Kd was found to be 14 µM at Nucleic Acid [15] (read-out: Kd), 7.8 µM on Nucleic Acid [3], 1.5 µM at Nucleic Acid [1] and 6.1 µM at Nucleic Acid [12]. Moreover, the Selectivity ratio in the data set with Nucleic Acid [16] and in the data set on Nucleic Acid [17] was 4 each time.

`O=C1Oc2ccccc2C(=O)/C1=C/N1C(=O)N/C(=C\c2ccccc2O)C1=O` registered a Kd on Nucleic Acid [1] of 163 µM.

In the case of `Cc1ccn2c(CCc3nnc4cc(C)ccn34)nnc2c1`, the solubility result in [18] and in [19] was “Insoluble” each time.

As to `CN(C)c1ncnc2c1ncn2CCn1cnc2ncnc(N(C)C)c21`, the Kd on Nucleic Acid [20] is 32 µM.

For the compound `Cc1cc(N2CCN(C)CC2)n2nc(-c3ccc(Cl)cc3)nc2n1`, the Kd on Nucleic Acid [15] (read-out: Kd) stood at 58 µM; on Nucleic Acid [21], 70 µM; on Nucleic Acid [3], 276 µM; on Nucleic Acid [5], 15 µM; at Nucleic Acid [8] it was 11 µM; at Nucleic Acid [9] it was 2250 µM. The Kd was 46 µM at Nucleic Acid [10] (read-out: Kd) and 69 µM on Nucleic Acid [12]. Further, the Selectivity ratio with Nucleic Acid [2] is 25; in the data set on Nucleic Acid [23], 7; in the data set with Nucleic Acid [24] it was 4; with Nucleic Acid [11], 5. For the same compound, the result in the data set with Nucleic Acid [22] was inactive. Further, the result in the data set with Nucleic Acid [7] was Active. Besides, in the data set on Nucleic Acid [14], the Tm came out at 78.2 °C.

With `COc1ccc2nc3cc(Cl)ccc3c(Nc3ccc(O)c(CN4CCN(C)CC4)c3)c2c1`, the results for the Kd at Nucleic Acid [3], at Nucleic Acid [1] and at Nucleic Acid [12] were 3 µM, 0.67 µM and 0.87 µM, respectively. Besides, the Selectivity ratio in the data set on Nucleic Acid [25] turned out to be 4.4.

For `Cn1c(N)nc2c(nc(OCc3ccccc3)n2[C@@H]2O[C@H](CO)[C@@H](O)[C@@H]2O)c1=O`, the result in the data set with Nucleic Acid [26] was inactive.

On Nucleic Acid [8], `C[N+]1(C)C2CC(OC(=O)C(CO)c3ccccc3)CC1C1OC12` (stereo unspecified) yielded a Kd of 157 µM.

With `CCOC(=O)c1c2c(n3ccccc13)C(=O)c1ccccc1C2=O`, the equilibrium dissociation constant (Kd) result in the data set on Nucleic Acid [15] is “Not Active”; on Nucleic Acid [3], 2.3 µM; on Nucleic Acid [1], 1.4 µM; on Nucleic Acid [12], 3 µM. Further, the Selectivity ratio in the data set on Nucleic Acid [16] and in the data set with Nucleic Acid [17] was 2 throughout.
